# Reference: patent publication US7375215B2, “Compounds for PDT” (Bioscience Technology Investment Holdings Limited, priority 2000, dated 2008)
# Experiments:
# [1] = usual clinical dose of 0.15 mg kg^−1; cited from earlier work
# Solubility in water = assay type: physicochemical
# [2] = Spectroscopic properties (absorbance, fluorescence); assay type: physicochemical; details: for Fluorescence in aqueous solution relative to ethanol: excited at 405 nm, indicates aggregation in water; for Molar extinction coefficient at the red peak: red absorption peak
# [3] = tested on: Colo26 mouse colorectal tumour cells; test: Uptake by Colo26 tumour cells in culture; assay type: cell-based; details: 1.5 μM; for 6 hour uptake (millions of molecules per cell) / 24 hour uptake (millions of molecules per cell) / Rate of uptake 6-24 h (thousands of molecules per cell per hour): Colo26 cells
# Method: Colo26 mouse colorectal tumour cells were grown in culture using standard methods. […] At the end of the set time period, the culture medium containing the added photosensitiser was removed and the cells washed with cold phosphate buffered saline. The cells were freed from the culture flask by treatment with trypsin solution. The viable cell count was determined using a standard haemocytometer and the photosensitiser extracted from the cells by treatment with methanol:DMSO (4:1, v:v). Cell extracts were frozen in liquid nitrogen and stored at −70° C. for later analysis. The photosensitiser content of the cell extract was determined by direct fluorescence using standard curves of photosensitiser and correcting for extraction efficiency from the cell suspension. […] (millions of molecules per cell, m against time t (hours)). […] The uptake of m-THPC is rapid, reaching a peak around 24 hours after which the photosensitiser content of the cells declines. […] However, the amount of photosensitiser taken up is greater. […] The mechanism of photosensitiser uptake by cells remains a subject of study. In the case of small hydrophobic sensitisers such as m-THPC, which are generally presented to cells bound to protein or lipoprotein in biological systems, a role for specific lipoprotein receptors has been implicated. […] One way in which uptake mechanisms may be studied is by determining the influence of temperature. In general, active (energy-dependent) uptake processes are inhibited in cells maintained at 4° C. compared to those at 37° C. Passive (energy-independent) uptake processes are much less temperature-dependent.
# Balb/c mice = test: Cutaneous photosensitivity (ear thickness after xenon light irradiation); assay type: in vivo; details: 0.88 μmol kg^−1, 40 Joules per cm^2 xenon light
# Method: Cutaneous photosensitivity was determined in adult female Balb/c mice, held under standard conditions and allowed access to food and water ad libitum. […] Each mouse was weighed immediately before injection and the injected volume adjusted to give the correct dose.
# At 24 or 72 hours after photosensitiser injection one ear of each mouse was irradiated with full-spectrum xenon light from a 1 KW clinical photo-irradiator (Model UV-90, Applied Photophysics, London). The light was delivered to the ear using a 7 mm diameter light guide (Serial SU3) placed lightly against the ear. The light dose given was 40 Joules per cm^2, which was achieved by exposing the ear for 63 seconds to 245 mW of light from the light guide having a contact area of 0.384 cm^2. The light guide filtered infra-red and ultra-violet light, so as to minimise heating of the ear and damage resulting from ultra-violet light irradiation.
# Animals treated with light at the 24 or 72 hour drug-light intervals were killed at 48 or 24 hours respectively after irradiation of the ears. The oedema of the irradiated and control ears was assessed by measuring ear thickness. The thickness of the ear was measured at three sites on the upper third of the ear using a fixed-force micrometer with a vernier-interpolated resolution of 2 μm and an accuracy of 10 μm (Neill instruments).
# [4] = tested on: syngeneic colo26 tumour implanted subcutaneously; test: Tumour PDT activity (tumour necrosis) in mouse implanted colorectal tumour model
# Source text: Information on the tumour PDT activity have been obtained in the aforementioned mouse model bearing the syngeneic colo26 tumour implanted subcutaneously at the top of the left hind leg (approximately 1 cm lateral to the spine). The tumours were used after 12 to 16 days when they had reached an average diameter of 8 to 10 mm. For drug injection and irradiation animals were sedated with Hypnorm diluted in water (1:3).
# [5] = Plasma and tissue photosensitiser concentrations in tumour-bearing mice
# Method: Adult female Balb/c mice bearing the syngeneic colo26 tumour implanted subcutaneously were produced using methods previously described (Ansell et al. Lasers in Medical Science 1997, 12, 336-41). Groups of mice of weight 19-22 g were given the photosensitisers at a dose of 0.88 μmol kg^−1 (equivalent to 0.6 mg kg^−1 in the case of m-THPC) by injection into the tail vein. The solutions for injection of each compound were prepared at a concentration of 0.352 μmol ml^−1 so that a typical 20 g mouse would be injected with a volume of 50 μl.
# Animals were sacrificed at 6, 24, 72 and 192 hours after injection of each photosensitiser. Immediately after sacrifice, blood was obtained by cardiac puncture, and centrifuged at 13,000×g for three minutes. The resulting supernatant (blood plasma) was aspirated and stored at −70° C. for subsequent analysis. The photosensitiser content of each sample was measured from the fluorescence of an extract obtained using methanol:DMSO (3:5, v:v). A 50 μl portion of each extract was transferred to a disposable fluorescence cuvette and the fluorescence determined using an excitation wavelength of 418 nm and emission wavelength of 650 nm with an eight second response setting. The assay was calibrated using stock solutions of each compound in methanol, further diluted in methanol:water (1:1, v/v) and extracted with methanol:DMSO as described above. […] The measurement protocol was designed to dilute each sample to a sufficient extent to avoid interference by endogenous chromophores (absorbance of samples <<0.1 at the excitation wavelength).
# The selectivity for tumour specific tissue distribution was also evaluated in this work. Tissue selectivity was evaluated as the tumour:muscle concentration ratio over the duration of the observation period (4-192 hours post-administration). This ratio provided a direct measure of the normal tissue to tumour tissue differential in concentrations and allows selection of an optimal treatment time for PDT that minimises the potential to cause collateral damage of normal tissues.
# [6] = tested on: syngeneic colo26 tumour implanted subcutaneously; details: 4.4 μmol kg^−1; drug-light interval 72 hours; light 652 nm; cited from earlier work
# tumour and muscle = details: cited from earlier work
# [7] = 0.88 μmol kg^−1 i.v., 6-192 hours
Compound,Fluorescence in aqueous solution relative to ethanol [2],Molar extinction coefficient at the red peak [2],6 hour uptake (millions of molecules per cell) ([3]; 4° C.),24 hour uptake (millions of molecules per cell) ([3]; 4° C.),Rate of uptake 6-24 h (thousands of molecules per cell per hour) ([3]; 4° C.),6 hour uptake (millions of molecules per cell) ([3]; 37° C.),24 hour uptake (millions of molecules per cell) ([3]; 37° C.),Rate of uptake 6-24 h (thousands of molecules per cell per hour) ([3]; 37° C.),"Differences in ear thickness (irradiated-control), Mean (Balb/c mice; 24 h drug-light interval) [μm]","Differences in ear thickness (irradiated-control), Mean (Balb/c mice; 72 h drug-light interval) [μm]",also measured
"Oc1cccc(-c2c3nc(c(-c4cccc(O)c4)c4ccc([nH]4)c(-c4cccc(O)c4)c4nc(c(-c5cccc(O)c5)c5ccc2[nH]5)CC4)C=C3)c1 [m-THPC, 7,8-dihydro-5,10,15,20-tetrakis(3-hydroxyphenyl)porphyrin]",severely quenched,"~30,000 L mol^−1 cm^−1",0.82 millions of molecules per cell,1.33 millions of molecules per cell,28 thousands of molecules per cel,79.2 millions of molecules per cell,208 millions of molecules per cell,7184 thousands of molecules per cel,41,2,"Duration of skin sensitivity [1]: 2-3 weeks; Solubility in water (Solubility in water; water): insoluble; Solubility in water (Solubility in water; water / aqueous solvents): insoluble in aqueous solvents; Inhibition of uptake at 4° C., factor ([3]; 4° C. versus 37° C.): over 250; Time of peak uptake by tumour cells ([3]; 37° C.): around 24 hours"
"tetrakis (6′-(methoxy PEG 2000 carbamate)1′-isocyanate hexamethylene) derivative of 7,8dihydro-5,10,15,20-tetrakis(3-hydroxyphenyl)porphyrin [SPC 0172]",36%,"~22,000 L mol^−1 cm^−1",1.08 millions of molecules per cell,1.78 millions of molecules per cell,39 thousands of molecules per cel,1.12 millions of molecules per cell,2.08 millions of molecules per cell,53 thousands of molecules per cel,2,0,"PDT activity compared with m-THPC ([4]; Balb/c mice bearing colo26): same PDT activity as m-THPC; Time of maximum photodynamic effect in tumour ([4]; Balb/c mice bearing colo26): 2 days; Damage of surrounding skin and underlying muscle at treated sites ([4]; particularly at the two day drug-light interval): only limited damage of the surrounding skin and underlying muscle; Tumour damage at a range of drug-light intervals ([4]; same dose (1.76 μmol kg^−1), light dose 20 J cm^−2, all drug-light intervals up to 72 hours): Full thickness tumour damage; Uptake on cooling as share of that at 37° C. ([3]; 4° C. versus 37° C.): about 75%; Cell photosensitiser content, times as much as SPC 0038B ([3]; after 72 hours of incubation, 37° C.): about 5; Liver photosensitiser levels [5, 7]: lower and eliminated more quickly; Plasma concentration-time profile [5, 7]: lower absolute levels and more rapid elimination; Skin photosensitiser concentrations [5, 7]: low throughout the 6-192 hour measurement period; Tumour:muscle concentration ratio ([5]; 72 hours post-administration, 0.88 μmol kg^−1 i.v.): about 7.5; Time of optimal tumour:muscle concentration ratio ([5]; post-administration, 0.88 μmol kg^−1 i.v.): 72 h"
"tetrakis (ω-methoxypolyethylene glycol [MW=2000] triazine of 7,8-dihydro-5,10,15,20-tetrakis(3-hydroxyphenyl)porphyrin [SPC 0038B]",47%,,0.56 millions of molecules per cell,0.64 millions of molecules per cell,4 thousands of molecules per cel,0.82 millions of molecules per cell,0.86 millions of molecules per cell,2 thousands of molecules per cel,25,4,"Fold less potency in comparison to SPC 0172 and m-THPC ([4]; optimal drug-light interval of 72 hours, dose level and degree of tumour necrosis basis): 10-20 fold; Uptake in the cold compared with 37° C. ([3]; 4° C. versus 37° C.): twice as great in the cold than at 37 °C; Cell photosensitiser content, factor less than that of m-THPC ([3]; after 72 hours incubation, 37° C.): ~100; Biological effect (mm of tumour necrosis) [6]: 3.3 ± 0.7 ^1 mm; Excretion from the liver ([5]; mouse, in vivo): more slowly than m-THPC; Time for which tumour retained maximum sensitivity to light (tumour and muscle; after drug administration, mouse model): at least 15 days; Time of peak concentration in muscle (tumour and muscle; after injection): ≤ 72 h; Muscle photosensitivity (tumour and muscle; three days after administration, mouse model): no longer photosensitive; PDT treatment times with sustained PDT tumour necrosis (tumour and muscle; tumour bioactivity): 4 to 15 days"
